“And” between values parts separate entries of the source, which are not always exact repeats. Identical values can stand only once. “Also recorded” adds a separate entry of the source. No end group written: not given here.
Legend:
[1] = target: T1, rat neuronal heteromeric α4β2 nAChR (Rattus norvegicus, UniProt P09483+P12390); format: cell-based
T1 construct: expressed in transfected cells; host or cells: Xenopus laevis oocytes injected with pcDNA3.1 plasmids, α4:β2 1:1
Protocol: Ovary tissue from adult female Xenopus laevis was cut into small pieces and these pieces were digested with collagenase A (4 mg mL^−1, Worthington Biochemical Corp., Lakewood, NJ, USA) in Barth’s solution without calcium (88.0 mM NaCl, 1.1 mM KCl, 2.4 mM NaHCO3, 0.8 mM MgSO4, 15.0 mM HEPES/NaOH, pH 7.6) for 1.5 ± 2 h at 20 °C. The oocytes were stored in Barth’s solution with calcium (88.0 mM NaCl, 1.1 mM KCl, 2.4 mM NaHCO3, 0.3 mM Ca (NO3)2, 0.4 mM CaCl2, 0.8 mM MgSO4, 15.0 mM HEPES/NaOH, pH 7.6) supplemented with 63.0 μg/mL penicillin-G sodium salt, 40.0 μg/mL streptomycin sulfate and 40.0 μg/mL gentamicin. Stage V ± VI oocytes were selected and injected with 3 ng plasmids coding the rat α4 and β2 nAChR subunits (pcDNA3.1 vector) in a molar ratio of 1:1 using an Auto-Nanoliter Injector NanoJect-2 (Drummond Scientific Company, Broomall, PA, USA) in a total injection volume of 23 nL. After injection, oocytes were incubated at 18 °C in Barth’s solution with calcium for 48–120 h. Electrophysiological recordings were made using a Turbo TEC-03X amplifier (npi electronic GmbH, Tamm, Germany) and WinWCP recording software (University of Strathclyde, Glasgow, UK). […] To allow receptor recovery from desensitization, the oocytes were superfused for 5–10 min with buffer (1 mL/min) between ligand applications. Electrophysiological recordings were performed at a holding potential of −60 mV.

[2] = tested on: human neuronal heteromeric α3-containing nAChRs (α3β2, α3β4, etc.); format: cell-based
[3] = tested on: mice; details: intraperitoneal administration to mice; cited from earlier work
[4] = target: T2, mouse muscle type α1β1εδ nAChR (Mus musculus, UniProt P02716+P04756+P20782); test: Calcium imaging of ACh-evoked [Ca2+]i rise in Neuro2a cells expressing muscle nAChR (Case12 sensor); format: cell-based
T2 construct: expressed in transfected cells; host or cells: mouse neuroblastoma Neuro2a, transient transfection (pRBG4 plasmids), co-expressed with Case12 calcium sensor
T2 sequence (P09690 24-501): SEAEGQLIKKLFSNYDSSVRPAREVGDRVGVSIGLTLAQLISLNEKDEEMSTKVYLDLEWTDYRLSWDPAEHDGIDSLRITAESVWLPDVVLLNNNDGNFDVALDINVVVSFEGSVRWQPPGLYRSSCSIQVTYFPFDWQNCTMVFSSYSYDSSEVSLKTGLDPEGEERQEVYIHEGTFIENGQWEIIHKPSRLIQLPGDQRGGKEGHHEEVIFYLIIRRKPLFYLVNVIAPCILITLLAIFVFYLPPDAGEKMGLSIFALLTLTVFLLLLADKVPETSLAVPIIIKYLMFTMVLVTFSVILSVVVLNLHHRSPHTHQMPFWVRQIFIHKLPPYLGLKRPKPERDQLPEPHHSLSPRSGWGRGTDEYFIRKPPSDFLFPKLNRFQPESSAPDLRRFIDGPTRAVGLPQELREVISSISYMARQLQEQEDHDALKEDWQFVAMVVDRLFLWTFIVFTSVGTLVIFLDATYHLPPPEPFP
T2 sequence (P04756 21-457): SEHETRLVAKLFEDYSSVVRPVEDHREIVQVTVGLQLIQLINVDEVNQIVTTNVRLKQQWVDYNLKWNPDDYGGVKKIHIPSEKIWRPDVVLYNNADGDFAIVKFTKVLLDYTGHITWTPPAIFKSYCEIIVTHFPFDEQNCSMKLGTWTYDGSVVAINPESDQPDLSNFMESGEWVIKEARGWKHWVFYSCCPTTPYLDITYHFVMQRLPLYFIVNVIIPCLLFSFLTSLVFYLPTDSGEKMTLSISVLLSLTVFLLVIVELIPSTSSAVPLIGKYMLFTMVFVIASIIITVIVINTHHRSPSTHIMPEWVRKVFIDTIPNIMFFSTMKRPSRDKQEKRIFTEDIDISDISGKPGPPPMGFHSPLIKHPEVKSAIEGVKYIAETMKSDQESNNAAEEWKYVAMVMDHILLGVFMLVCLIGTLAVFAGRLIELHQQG
T2 sequence (P02716 25-520): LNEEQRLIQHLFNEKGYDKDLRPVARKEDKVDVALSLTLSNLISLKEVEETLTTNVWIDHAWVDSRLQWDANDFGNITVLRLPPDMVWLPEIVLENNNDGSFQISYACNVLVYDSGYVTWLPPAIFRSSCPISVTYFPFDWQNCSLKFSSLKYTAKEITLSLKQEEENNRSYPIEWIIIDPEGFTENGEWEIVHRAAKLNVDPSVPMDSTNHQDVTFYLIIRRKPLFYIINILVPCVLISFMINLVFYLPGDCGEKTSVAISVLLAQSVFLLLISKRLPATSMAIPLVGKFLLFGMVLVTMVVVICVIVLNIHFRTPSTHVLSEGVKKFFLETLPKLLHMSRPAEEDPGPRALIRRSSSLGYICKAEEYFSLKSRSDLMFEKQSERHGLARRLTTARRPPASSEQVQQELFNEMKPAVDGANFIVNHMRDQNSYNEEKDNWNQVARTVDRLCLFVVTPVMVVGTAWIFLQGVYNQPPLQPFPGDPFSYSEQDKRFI
T2 sequence (P20782 21-493): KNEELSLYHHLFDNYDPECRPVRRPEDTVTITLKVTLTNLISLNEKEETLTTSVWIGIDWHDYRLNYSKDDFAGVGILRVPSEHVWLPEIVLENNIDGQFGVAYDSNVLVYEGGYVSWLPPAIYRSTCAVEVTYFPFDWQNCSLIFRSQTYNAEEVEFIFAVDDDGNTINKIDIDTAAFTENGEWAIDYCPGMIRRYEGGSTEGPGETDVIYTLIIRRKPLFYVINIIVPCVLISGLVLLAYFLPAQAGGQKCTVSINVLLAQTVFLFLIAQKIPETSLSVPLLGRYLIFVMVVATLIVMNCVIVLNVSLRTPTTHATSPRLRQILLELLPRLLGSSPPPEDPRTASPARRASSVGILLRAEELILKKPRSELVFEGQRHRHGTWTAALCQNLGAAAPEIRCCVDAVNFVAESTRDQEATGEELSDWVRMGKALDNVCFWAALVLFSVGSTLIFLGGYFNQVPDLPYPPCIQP
Protocol: (§1) Mouse neuroblastoma Neuro2a cells were purchased from the Russian collection of cell cultures (Institute of Cytology, Russian Academy of Sciences, Saint Petersburg, Russia). Cells were cultured in DMEM (Paneco, Moscow, Russia) supplemented with 10% FBS. They were sub-cultured the day before transfection and were plated at a density of 10,000 cells per well in a 96-well black plate. On the next day Neuro2a cells were transiently transfected with plasmids coding mouse muscle α1β1δε nAChR (pRBG4-vector) and a fluorescent calcium sensor Case12 (pCase12-cyto vector, Evrogen, Moscow, Russia) in a molar ratio of 2:1 following a lipofectamine transfection protocol (ThermoFisher Scientific, Waltham, MA, USA). Human α7 nAChR (α7 nAChR-pCEP4) was expressed accordingly with a co-expression of the human chaperone Ric-3 (Ric3-pCMV6-XL5, OriGene, Rockville, MD, USA) in a molar ratio 4:1. The transfected cells were grown at 37 °C in a CO2 incubator for 48–72 h, before performing the calcium imaging assay.
Calcium imaging procedure was performed as published earlier. Briefly, after removing the growth medium, the transfected Neuro2a cells and cultivated SH-SY5Y cells were washed with a buffer containing 140 mM NaCl, 2 mM CaCl2, 2.8 mM KCl, 4 mM MgCl2, 20 mM HEPES, 10 mM glucose; pH 7.4. Neuro2a cells expressing muscle nAChR and the protein calcium sensor Case12 were proceeded directly, while SH-SY5Y cells expressing human α3-containing nAChRs natively were loaded with a fluorescent dye Fluo-4, AM (1.824 μM, ThermoFisher Scientific, Waltham, MA, USA) and a water-soluble probenecid (1.25 mM, ThermoFisher Scientific, Waltham, MA, USA) for 30 min at 37 °C and then were kept for 30 min at room temperature according to the manufacturer’s protocol.
To detect the human α7 nAChR-mediated calcium response, transfected Neuro2a cells were incubated with its positive allosteric modulator PNU120596 (10 μM, Tocris Bioscience, Bristol, UK) for 20 min at room temperature before acetylcholine (Sigma-Aldrich Chemie Gmbh, Munich, Germany) addition. To assess mouse muscle or human α3-containing nAChRs this step was skipped. […]
(§2) The plates were transferred to the multimodal microplate reader Hidex Sence (Hidex, Turku, Finland) where the cells were excited by light of 485 nm wavelength and emitted fluorescence was detected at 535 ± 10 nm. Fluorescence was recorded every 2 s for three minutes following agonist addition. Responses were measured as peak intensity minus basal fluorescence level and were expressed as a percentage of the maximal response obtained to agonist. Data files were analyzed using Hidex Sence software (Hidex, Turku, Finland) and OriginPro 7.5 software (OriginLab, Northampton, MA, USA, for statistical analysis).

[5] = target: muscle-type Torpedo nicotinic acetylcholine receptor (nAChR); details: cited from earlier work
[6] = target: T3, human neuronal homopentameric α7 nAChR (Homo sapiens, UniProt P36544); test: Calcium imaging of ACh-evoked [Ca2+]i rise in Neuro2a cells expressing α7 nAChR; format: cell-based; details: 10 μM ACh (EC50); transfected Neuro2a cells, PNU120596 10 μM; 15 min preincubation; mean ± SEM, 4 independent experiments; read-out: IC50, inhibition of ACh-evoked calcium response of α7 nAChR
T3 construct: expressed in transfected cells; host or cells: mouse neuroblastoma Neuro2a, transient transfection (α7 nAChR-pCEP4) with human Ric-3 (Ric3-pCMV6-XL5, OriGene)
T3 sequence (P36544 23-502): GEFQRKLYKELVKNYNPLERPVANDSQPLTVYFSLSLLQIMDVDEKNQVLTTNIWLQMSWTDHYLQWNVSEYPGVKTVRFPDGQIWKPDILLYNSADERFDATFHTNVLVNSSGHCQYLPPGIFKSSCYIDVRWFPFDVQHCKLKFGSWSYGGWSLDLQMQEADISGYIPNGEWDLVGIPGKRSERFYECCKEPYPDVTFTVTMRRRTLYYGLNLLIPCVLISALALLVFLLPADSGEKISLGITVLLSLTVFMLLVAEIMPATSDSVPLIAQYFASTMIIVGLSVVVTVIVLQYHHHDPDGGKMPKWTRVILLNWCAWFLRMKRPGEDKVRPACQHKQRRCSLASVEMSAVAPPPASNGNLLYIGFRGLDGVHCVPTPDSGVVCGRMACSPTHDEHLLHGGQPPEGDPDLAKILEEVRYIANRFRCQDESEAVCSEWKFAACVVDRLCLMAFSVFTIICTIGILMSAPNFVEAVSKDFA
Protocol: as §1, with “Human α7 nAChR (α7 nAChR-pCEP4) was expressed accordingly with a co-expression of the human chaperone Ric-3 (Ric3-pCMV6-XL5, OriGene, Rockville, MD, USA) in a molar ratio 4:1. The transfected cells were grown at 37 °C in a CO2 incubator for 48–72 h, before performing the calcium imaging assay.” left out
as §2

[7] = tested on: GABAA (α1β3γ2 or α2β3γ2) receptors; details: concentration up to 100 μM; cited from earlier work
[8] = tested on: male ICR mice; format: in vivo, mouse; details: 7-day im 0.15 and 0.5 mg/kg
Protocol: For carrying out these experiments 90 male ICR mice were used, they were divided equally into three groups (30 animals per group) for each study and in these groups they were subdivided into subgroups of 10 mice each and treated as follows: mice of the first subgroup were injected with normal saline im, the second subgroup animals were treated with Az (0.15 mg/kg im) and the animals of the third subgroup were treated with Az (0.50 mg/kg im). The drugs were injected into the quadriceps muscle of the thigh (musculus quadriceps femoris) daily for seven days (1 mL/kg).
On the last 7th day of the Az administration, the mice of the first group (30 animals) were immunized with a solution of trinitrobenzenesulfonic acid (TNBS) (200 μL, 10 mM) subcutaneously at the base of a tail. After 6 days the animals were secondarily immunized with TNBS (50 μL, 10 mM) injected in the pad of the left hind paw, the same volume of normal saline was injected into the right hind paw. 24 h after the second immunization, the animals were euthanized (CO2 inhalation) and the weights of their experimental and control paws were determined. The reaction index was calculated using the indicated formula: Ri=Wexp−Wcont/Wexp×100% Ri—reaction index, Wexp—weight of the experimental paw, Wcont—weight of the control paw.

[9] = tested on: male and female ICR mice; format: in vivo, mouse; details: 0.15 mg/kg subcutaneously, n = 10
Protocol: Allergenicity of Az was studied in a delayed-type hypersensitivity test on male (20 animals) and female (20 animals) adult ICR mice. The mice were divided into four groups (two control and two experimental groups) of 10 animals (males or females) per group. Mice of the experimental groups were injected subcutaneously at the base of a tail with Az solution (0.15 mg/kg) emulsified in Freund’s complete adjuvant in a ratio of 1:1 (2 mL/kg). Similarly, the mice in the control groups were administered with a suspension of normal saline in Freund’s complete adjuvant. Five days later all animals received an injection of Az (0.15 mg/kg, 1.33 mL/kg) in the pad of the left hind paw. To estimate the intensity of the studied allergic reaction, 6, 12 and 24 h after the second Az injection the thickness of the left and right hind mouse paws was measured with a digital caliper.

T1 sequence (P09483 31-630): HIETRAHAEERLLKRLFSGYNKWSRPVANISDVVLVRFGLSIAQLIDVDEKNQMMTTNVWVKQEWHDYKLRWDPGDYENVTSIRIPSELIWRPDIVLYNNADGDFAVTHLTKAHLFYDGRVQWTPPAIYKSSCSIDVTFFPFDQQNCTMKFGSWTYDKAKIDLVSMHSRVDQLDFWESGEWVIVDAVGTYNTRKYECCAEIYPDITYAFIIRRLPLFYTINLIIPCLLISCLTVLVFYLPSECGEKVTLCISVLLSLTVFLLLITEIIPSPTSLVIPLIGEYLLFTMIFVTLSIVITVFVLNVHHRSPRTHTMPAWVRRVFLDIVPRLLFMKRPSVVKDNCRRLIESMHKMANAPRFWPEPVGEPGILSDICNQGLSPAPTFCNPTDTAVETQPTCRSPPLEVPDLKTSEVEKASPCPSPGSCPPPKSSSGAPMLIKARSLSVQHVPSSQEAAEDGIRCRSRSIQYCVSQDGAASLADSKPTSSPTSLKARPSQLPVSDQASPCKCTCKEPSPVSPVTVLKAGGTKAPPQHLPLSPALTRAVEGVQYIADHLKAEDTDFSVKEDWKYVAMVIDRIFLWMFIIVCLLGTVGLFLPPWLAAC
T1 sequence (P12390 25-500): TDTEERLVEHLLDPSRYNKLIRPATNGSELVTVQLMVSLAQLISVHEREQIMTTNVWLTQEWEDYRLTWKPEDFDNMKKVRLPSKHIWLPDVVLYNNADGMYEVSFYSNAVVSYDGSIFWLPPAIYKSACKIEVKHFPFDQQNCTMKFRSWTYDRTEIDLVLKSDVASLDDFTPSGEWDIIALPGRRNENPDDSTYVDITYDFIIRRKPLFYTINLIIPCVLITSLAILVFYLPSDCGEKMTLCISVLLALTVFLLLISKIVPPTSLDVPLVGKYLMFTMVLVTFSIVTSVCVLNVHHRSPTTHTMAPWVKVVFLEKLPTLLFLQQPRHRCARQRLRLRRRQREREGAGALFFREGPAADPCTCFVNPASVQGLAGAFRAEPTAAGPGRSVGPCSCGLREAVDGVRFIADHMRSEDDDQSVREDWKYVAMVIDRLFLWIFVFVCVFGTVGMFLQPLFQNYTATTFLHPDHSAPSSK

DNWWPKPPHQGPRPPRPRPKP-NH2 [Az, azemiopsin]
influence on ion currents induced by 20 μM nicotine in α4β2 nAChR [1]: no influence | effect on heteromeric rat α4β2 nAChR ([1]; concentrations up to 100 μM): no effect | activity against α3-containing nAChRs (nicotine-evoked calcium responses) [2]: no Az activity; also recorded: no effect | LD50 [3]: 2.57 ± 0.27 mg/kg | IC50 ([4]; 30 μM ACh (EC100), transfected Neuro2a cells, Case12 sensor, 15 min preincubation, mean ± SEM, 4 independent experiments, read-out: IC50, inhibition of ACh-evoked calcium response of muscle nAChR): 19 ± 8 nM | selectivity to muscle receptor versus α7 nAChR ([4]; ratio of calcium imaging IC50 values α7 / muscle): about 140 times | IC50 [5]: 180 ± 30 nM | IC50 [6]: 2670 nM and ~3000 nM | activity against GABAA receptors [7]: no activity | degree of paw edema in delayed-type hypersensitivity to TNBS (cellular immunity) [8]: did not cause any significant changes | allergic effect in the delayed-type hypersensitivity reaction test [9]: no allergic effect

— publication PMC5793121 (Toxins, 2018)
